In patent USRE47689E1, “Compounds for treating spinal muscular atrophy” (PTC Therapeutics, Inc., priority 2011, dated 2019):
Like-named read-outs stand apart in the source and are kept apart here.

Columns and labels:
Smn protein = Smn protein assay in cultured cells (SMN HTRF); type: cell-based, human; settings: 48 hours; for maximum fold (Fold) increase of Smn protein: SMA patient fibroblast cells, 7-point concentration data, fold increase relative to vehicle control (SMN HTRF); for EC1.5x (concentration giving 1.5-fold Smn protein increase): SMA Type 1 patient fibroblast cells (GM03813), 7-point concentration curve, SMN HTRF, concentration producing 1.5 times Smn protein vs DMSO vehicle control, read-out: EC1.5x for Smn protein expression
In short: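 Lysates in RIPA with protease inhibitors are incubated overnight at room temperature with HTRF anti-SMN antibodies. EC1.5x is derived from fold increase in ΔF over vehicle.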

[1] = test system: SMN2 minigene (full length SMN2 minigene mRNA containing SMN2 exon 7); experiment: SMN2 minigene mRNA splicing RT-qPCR assay in cultured cells; type: cell-based, human; settings: Homo sapiens, HEK293-H, read-out: EC1.5x for production of full length SMN2 mRNA
In short: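 Read-out: full-length (exon 7-included) SMN2 minigene mRNA by multiplex RT-qPCR with GAPDH, efficiency-corrected (1+E)^−Ct, GAPDH-normalized and divided by vehicle. Stably transfected HEK293H cells, 24 h compound exposure, duplicates per concentration. Value is EC1.5x, reported as star ranges.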

[2] = HEK293H cells stably transfected with SMN2-A minigene, 24 hours, 7-point concentration curve, 1.5-fold relative to vehicle-treated cells

Structure (SMILES)	maximum fold (Fold) increase of Smn protein (Smn protein)	EC (1.5-fold) [1, 2] [µM]	melting point [°C]	EC1.5x (concentration giving 1.5-fold Smn protein increase) (Smn protein) [nM]	EC (1.5-fold) ([1]; 24 h) [µM]
Cc1cn2cc(-c3ccc4cc(N5CCNCC5)c(=O)oc4c3)ccc2n1 [Cpd 818, 7-(2-methylimidazo[1,2-a]pyridin-6-yl)-3-(piperazin-1-yl)-2H-chromen-2-one]	* (maximum fold increase of ≤1.2)	1 to 3	174 to 178		
CNCCc1ccc2cc(-c3cn4cc(C)nc(C)c4n3)c(=O)oc2c1 [Compound 911, 3-(6,8-dimethylimidazo[1,2-a]pyrazin-2-yl)-7-[2-(methylamino)ethyl]-2H-chromen-2-one]	***** (fold increase >1.65)	< 0.1	204 to 208	< 300	
CCN(C)CCOc1ccc2cc(-c3cn4cc(C)nc(C)c4n3)c(=O)oc2c1 [Compound 937, 3-(6,8-dimethylimidazo[1,2-a]pyrazin-2-yl)-7-{2-[ethyl(methyl)amino]ethoxy}-2H-chromen-2-one]	***** (fold increase >1.65)	< 0.1	190 to 196	< 300	
O=c1oc2cc(N3CCN(CCO)CC3)ccc2cc1-c1cn2cc(Cl)cnc2n1 [Compound 347, 3-(6-chloroimidazo[1,2-a]pyrimidin-2-yl)-7-[4-(2-hydroxyethyl)piperazin-1-yl]-2H-chromen-2-one]	* (maximum fold increase of ≤1.2)	3 to 30	288 to 296		
Cc1cn2cc(-c3cc4ccc(N5C[C@@H](C)N[C@@H](C)C5)cc4oc3=O)nc2cn1 [Compound 476, 7-[(3R,5S)-3,5-dimethylpiperazin-1-yl]-3-(6-methylimidazo[1,2-a]pyrazin-2-yl)-2H-chromen-2-one]	***** (fold increase >1.65)	< 0.1	249 to 250	< 300	
Cc1cccc2nc(-c3cc4ccc(N5CCNCC5)cc4oc3=O)cn12 [Compound 132, 3-(5-methylimidazo[1,2-a]pyridin-2-yl)-7-(piperazin-1-yl)-2H-chromen-2-one]	* (maximum fold increase of ≤1.2)	1 to 3	239 to 249		
Cc1cn2cc(-c3cc4ccc(N5CCC(N(CCO)CCO)CC5)cc4oc3=O)nc2c(C)n1 [Compound 928, 7-{4-[bis(2-hydroxyethyl)amino]piperidin-1-yl}-3-(6,8-dimethylimidazo[1,2-a]pyrazin-2-yl)-2H-chromen-2-one]	*** (fold increase between >1.35 and ≤1.5)	0.1 to 0.3	209 to 212		
Cc1cn2cc(-c3cc4ccc(N5C[C@H](O)[C@@H](N(C)C)C5)cc4oc3=O)nc2c(C)n1 [Compound 738, 7-[(3S,4S)-3-(dimethylamino)-4-hydroxypyrrolidin-1-yl]-3-(6,8-dimethylimidazo[1,2-a]pyrazin-2-yl)-2H-chromen-2-one]	***** (fold increase >1.65)	< 0.1	270 to 272	< 300	
Cc1cccc2oc(-c3cc4ccc(N5C[C@@H](C)N[C@@H](C)C5)cc4oc3=O)nc12 [Compound 31, 7-[(3R,5S)-3,5-dimethylpiperazin-1-yl]-3-(4-methyl-1,3-benzoxazol-2-yl)-2H-chromen-2-one]	* (maximum fold increase of ≤1.2)	3 to 30	243 to 245		
O=c1oc2cc(CN3CCCCC3)ccc2cc1-c1nc2c(Cl)cccc2s1 [Compound 60, 3-(4-chloro-1,3-benzothiazol-2-yl)-7-(piperidin-1-ylmethyl)-2H-chromen-2-one]	** (fold increase between >1.2 and ≤1.35)	1 to 3	191 to 195		
Cc1cn2cc(-c3cc4ccc(N5CCN(CC(C)(C)O)CC5)cc4oc3=O)nc2c(C)n1 [Compound 962, 3-(6,8-dimethylimidazo[1,2-a]pyrazin-2-yl)-7-[4-(2-hydroxy-2-methylpropyl)piperazin-1-yl]-2H-chromen-2-one]	***** (fold increase >1.65)	< 0.1	212 to 214	< 300	
Cc1cc(C)c2nc(-c3cc4ccc(N5CCN(C)CC5)cc4oc3=O)cn2c1 [Compound 261, 3-(6,8-dimethylimidazo[1,2-a]pyridin-2-yl)-7-(4-methylpiperazin-1-yl)-2H-chromen-2-one]	** (fold increase between >1.2 and ≤1.35)	0.3 to 1	232 to 238		
Cc1cccc2nc(-c3cc4ccc(N5CCN(C)CC5)cc4oc3=O)cn12 [Compound 135, 3-(5-methylimidazo[1,2-a]pyridin-2-yl)-7-(4-methylpiperazin-1-yl)-2H-chromen-2-one]	** (fold increase between >1.2 and ≤1.35)	0.3 to 1	263 to 272		
CCN1CCN(c2ccc3cc(-c4cn5cccc(C)c5n4)c(=O)oc3c2)CC1 [Compound 100, 7-(4-ethylpiperazin-1-yl)-3-(8-methylimidazo[1,2-a]pyridin-2-yl)-2H-chromen-2-one]	** (fold increase between >1.2 and ≤1.35)	0.3 to 1	211 to 213		
Cc1cn2cc(-c3cc4ccc(N[C@@H]5CCN(CCO)C5)cc4oc3=O)nc2c(C)n1 [Compound 732, 3-(6,8-dimethylimidazo[1,2-a]pyrazin-2-yl)-7-{[(3R)-1-(2-hydroxyethyl)pyrrolidin-3-yl]amino}-2H-chromen-2-one]	*** (fold increase between >1.35 and ≤1.5)	< 0.1	211 to 219	< 300	
Cc1ccn2cc(-c3cc4c(F)cc(N5CCNCC5)cc4oc3=O)nc2c1 [Compound 424, 5-fluoro-3-(7-methylimidazo[1,2-a]pyridin-2-yl)-7-(piperazin-1-yl)-2H-chromen-2-one]	*** (fold increase between >1.35 and ≤1.5)	0.1 to 0.3	268 to 278	< 300	
O=c1oc2cc(N3CCNCC3)ccc2cc1-c1cccc(F)c1 [Compound 26, 3-(3-fluorophenyl)-7-(piperazin-1-yl)-2H-chromen-2-one]	* (maximum fold increase of ≤1.2)		148 to 150		1 to 3
Cc1cc(F)c2nc(-c3cc4ccc(N5CCN6CCC[C@H]6C5)cc4oc3=O)cn2c1 [Compound 560, 3-(8-fluoro-6-methylimidazo[1,2-a]pyridin-2-yl)-7-[(8aS)-hexahydropyrrolo[1,2-a]pyrazin-2(1H)-yl]-2H-chromen-2-one]	**** (fold increase between >1.5 and ≤1.65)	0.1 to 0.3	296 to 306	< 300	
O=c1oc2cc(N3CCNCC3)ccc2cc1-c1ccc(Cl)cn1 [Compound 113, 3-(5-chloropyridin-2-yl)-7-(piperazin-1-yl)-2H-chromen-2-one]			180 to 182		3 to 30
O=c1oc2cc(OC3CCNCC3)ccc2cc1-c1nc2ccccc2s1 [Compound 46, 3-(1,3-benzothiazol-2-yl)-7-(piperidin-4-yloxy)-2H-chromen-2-one]		0.3 to 1	220 to 226		
O=c1oc2cc(CN3CCC(O)CC3)ccc2cc1-c1nc2c(Cl)cccc2s1 [Compound 273, 3-(4-chloro-1,3-benzothiazol-2-yl)-7-[(4-hydroxypiperidin-1-yl)methyl]-2H-chromen-2-one]		1 to 3	193 to 196		
CN1CCN(c2ccc3cc(-c4ccn(-c5ccccc5)n4)c(=O)oc3c2)CC1 [Cpd 74, 7-(4-methylpiperazin-1-yl)-3-(1-phenyl-1H-pyrazol-3-yl)-2H-chromen-2-one]		3 to 30	152 to 159		
Cn1ccc(-c2cc3ccc(N4CCNCC4)cc3oc2=O)n1 [Cpd 38, 3-(1-methyl-1H-pyrazol-3-yl)-7-(piperazin-1-yl)-2H-chromen-2-one]			224 to 228		1 to 3
Cc1cccc2oc(-c3cc4ccc(N5CCN(C)CC5)cc4oc3=O)nc12 [Compound 21, 3-(4-methyl-1,3-benzoxazol-2-yl)-7-(4-methylpiperazin-1-yl)-2H-chromen-2-one]		3 to 30	217 to 219		
Cc1cccn2cc(-c3cc4ccc(N5CCN(CCO)CC5)cc4oc3=O)nc12 [Compound 102, 7-[4-(2-hydroxyethyl)piperazin-1-yl]-3-(8-methylimidazo[1,2-a]pyridin-2-yl)-2H-chromen-2-one]		1 to 3	210 to 212		
CN1CCN(c2ccc3cc(-c4cccc(C(F)(F)F)c4)c(=O)oc3c2)CC1 [Compound 11, 7-(4-methylpiperazin-1-yl)-3-[3-(trifluoromethyl)phenyl]-2H-chromen-2-one]		3 to 30	150 to 156		
